Laboratory results published in US20240158392A1 (Janssen Biotech, Inc., priority 2021, published 2024).

Legend:
SIK2 [1] = molecular target: T1, SIK2 (Homo sapiens, UniProt Q9H0K1); assay: SIK2 Enzymatic Assay Version 1 (ADP Glo); format: biochemical; details: enzyme 0.6 nM, 160 μM ATP and 140 μM HDAC5tide (each 2× final concentration); 30 minutes pre-incubation, 4 hours; ADPGlo luminescence; read-out: SIK2 ADP Glo IC50 (μM) (Test Example 1)
Summary of the method: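 Room-temperature ADP-Glo luminescence assay; SIK2 added at 0.6 nM (2× final) and preincubated with compound for 30 min. Reaction stopped with ADP-Glo Reagent for 40 min, then detection reagent for at least 30 min; no-peptide (ATP-only) wells served as negative control.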

SIK2 [2] = molecular target: T1, SIK2; assay: SIK2 Enzymatic Assay High Version 2 (High ATP); format: biochemical
Summary of the method: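 At room temperature, enzyme (6 nM, 2× final) was preincubated with compound for 30 min, then 6 mM ATP and 400 μM HDAC5tide (both 2× final) were added for 2 h. ADP formed was measured by ADP-Glo Max (2 h reagent, 1 h detection) using luminescence.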

T1 sequence (Q9H0K1 whole entry, species assumed): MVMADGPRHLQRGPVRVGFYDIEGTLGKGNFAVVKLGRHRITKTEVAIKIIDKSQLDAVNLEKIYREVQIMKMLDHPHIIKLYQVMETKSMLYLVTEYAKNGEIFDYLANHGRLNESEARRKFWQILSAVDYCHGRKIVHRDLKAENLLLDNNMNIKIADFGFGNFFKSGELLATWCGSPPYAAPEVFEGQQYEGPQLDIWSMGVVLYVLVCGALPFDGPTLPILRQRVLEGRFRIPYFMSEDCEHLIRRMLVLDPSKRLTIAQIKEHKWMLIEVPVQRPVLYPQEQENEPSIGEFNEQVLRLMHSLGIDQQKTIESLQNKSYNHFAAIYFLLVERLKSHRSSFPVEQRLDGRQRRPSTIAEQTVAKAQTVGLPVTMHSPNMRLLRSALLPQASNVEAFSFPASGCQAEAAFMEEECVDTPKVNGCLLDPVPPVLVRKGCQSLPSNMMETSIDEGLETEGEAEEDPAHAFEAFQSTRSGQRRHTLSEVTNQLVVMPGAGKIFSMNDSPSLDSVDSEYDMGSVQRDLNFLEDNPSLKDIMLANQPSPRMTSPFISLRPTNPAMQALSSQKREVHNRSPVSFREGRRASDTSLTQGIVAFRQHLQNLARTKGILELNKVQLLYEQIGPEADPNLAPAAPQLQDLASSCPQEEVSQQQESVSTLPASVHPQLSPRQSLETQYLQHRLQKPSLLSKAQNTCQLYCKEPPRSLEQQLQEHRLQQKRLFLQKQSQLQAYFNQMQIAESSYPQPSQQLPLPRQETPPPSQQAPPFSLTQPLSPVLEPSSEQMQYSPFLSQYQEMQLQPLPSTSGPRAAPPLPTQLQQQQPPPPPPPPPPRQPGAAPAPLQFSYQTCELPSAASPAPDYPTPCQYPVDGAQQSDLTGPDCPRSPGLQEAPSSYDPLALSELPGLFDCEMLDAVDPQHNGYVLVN

Structure (SMILES)	IC50 (SIK2 [1]) [µM]	IC50 (SIK2 [2]) [nM]
N#Cc1cc(-c2ccn3nc(NC(=O)C4CC4)cc3c2)c(OCC(O)(C(F)(F)F)C(F)(F)F)cn1 [Example 99, N-[5-[2-cyano-5-[3,3,3-trifluoro-2-hydroxy-2-(trifluoromethyl)propoxy]-4-pyridyl]pyrazolo[1,5-a]pyridin-2-yl]cyclopropanecarboxamide]	0.00295	37.6
CN1CC[C@@H](COc2ccc(C#N)cc2-c2ccn3nc(NC(=O)C4CC4)cc3c2)C1 [Example 100, N-[5-[5-cyano-2-[[(3R)-1-methylpyrrolidin-3-yl]methoxy]phenyl]pyrazolo[1,5-a]pyridin-2-yl]cyclopropanecarboxamide]	0.00573	105
N#Cc1ccc(OC[C@H]2CNCCO2)c(-c2ccn3nc(NC(=O)C4CC4)cc3c2)c1 [Example 101, N-[5-[5-cyano-2-[[(2R)-morpholin-2-yl]methoxy]phenyl]pyrazolo[1,5-a]pyridin-2-yl]cyclopropanecarboxamide]	0.00263	21.9
CC1(C)CNC[C@H](COc2ccc(C#N)cc2-c2ccn3nc(NC(=O)C4CC4)cc3c2)O1 [Example 102, N-[5-[5-cyano-2-[[(2R)-6,6-dimethylmorpholin-2-yl]methoxy]phenyl]pyrazolo[1,5-a]pyridin-2-yl]cyclopropanecarboxamide]	0.000413	< 0.838
N#Cc1ccc(OC[C@@H]2CNCCO2)c(-c2ccn3nc(NC(=O)C4CC4)cc3c2)c1 [Example 103, N-[5-[5-cyano-2-[[(2S)-morpholin-2-yl]methoxy]phenyl]pyrazolo[1,5-a]pyridin-2-yl]cyclopropanecarboxamide]	0.00362	34.5
CC1(C)CNC[C@@H](COc2ccc(C#N)cc2-c2ccn3nc(NC(=O)C4CC4)cc3c2)O1 [Example 104, N-[5-[5-cyano-2-[[(2S)-6,6-dimethylmorpholin-2-yl]methoxy]phenyl]pyrazolo[1,5-a]pyridin-2-yl]cyclopropanecarboxamide]	0.00588	31
CN1CC[C@@H](COc2cnc(C#N)cc2-c2ccn3nc(Nc4ccncc4)cc3c2)C1 [Example 105, 5-[[(3R)-1-methylpyrrolidin-3-yl]methoxy]-4-[2-(4-pyridylamino)pyrazolo[1,5-a]pyridin-5-yl]pyridine-2-carbonitrile]	0.00951	203
CN1CC[C@@H](COc2cnc(C#N)cc2-c2ccn3nc(Nc4ccccc4)cc3c2)C1 [Example 106, 4-(2-anilinopyrazolo[1,5-a]pyridin-5-yl)-5-[[(3R)-1-methylpyrrolidin-3-yl]methoxy]pyridine-2-carbonitrile]	0.00338	48.5
CN1CC[C@@H](COc2cnc(C#N)cc2-c2ccn3nc(Nc4ccccn4)cc3c2)C1 [Example 107, 5-[[(3R)-1-methylpyrrolidin-3-yl]methoxy]-4-[2-(2-pyridylamino)pyrazolo[1,5-a]pyridin-5-yl]pyridine-2-carbonitrile]	0.0022	40.1
COCCN1CC[C@H](Oc2cnc(C#N)cc2-c2ccn3nc(NC(=O)C4CC4)cc3c2)C1 [Example 108, (S)—N-[5-[2-cyano-5-[(3S)-1-(2-methoxyethyl)pyrrolidin-3-yl]oxy-4-pyridyl]pyrazolo[1,5-a]pyridin-2-yl]cyclopropanecarboxamide]	0.00527	204
N#Cc1cc(-c2ccn3nc(NC(=O)C4CC4)cc3c2)c(O[C@H]2CCN(Cc3ccccn3)C2)cn1 [Example 109, (S)—N-[5-[2-cyano-5-[(3S)-1-(2-pyridylmethyl)pyrrolidin-3-yl]oxy-4-pyridyl]pyrazolo[1,5-a]pyridin-2-yl]cyclopropanecarboxamide]	0.00422	116
N#Cc1cc(-c2ccn3nc(NC(=O)C4CC4)cc3c2)c(O[C@@H]2CCN(CC(F)(F)F)C2)cn1 [Example 110, (R)—N-[5-[2-cyano-5-[(3R)-1-(2,2,2-trifluoroethyl)pyrrolidin-3-yl]oxy-4-pyridyl]pyrazolo[1,5-a]pyridin-2-yl]cyclopropanecarboxamide]	0.00055	2.85
COCCN1CC[C@@H](Oc2cnc(C#N)cc2-c2ccn3nc(NC(=O)C4CC4)cc3c2)C1 [Example 111, (R)—N-[5-[2-cyano-5-[(3R)-1-(2-methoxyethyl)pyrrolidin-3-yl]oxy-4-pyridyl]pyrazolo[1,5-a]pyridin-2-yl]cyclopropanecarboxamide]	0.00261	47.9
N#Cc1cc(-c2ccn3nc(NC(=O)C4CC4)cc3c2)c(O[C@@H]2CCN(Cc3ccccn3)C2)cn1 [Example 112, (R)—N-[5-[2-cyano-5-[(3R)-1-(2-pyridylmethyl)pyrrolidin-3-yl]oxy-4-pyridyl]pyrazolo[1,5-a]pyridin-2-yl]cyclopropanecarboxamide]	0.00356	81.5
N#CCN1CC[C@@H](Oc2cnc(C#N)cc2-c2ccn3nc(NC(=O)C4CC4)cc3c2)C1 [Example 113, (R)—N-[5-[2-cyano-5-[(3R)-1-(cyanomethyl)pyrrolidin-3-yl]oxy-4-pyridyl]pyrazolo[1,5-a]pyridin-2-yl]cyclopropanecarboxamide]	0.000393	2.27
N#CCN1CC[C@H](Oc2cnc(C#N)cc2-c2ccn3nc(NC(=O)C4CC4)cc3c2)C1 [Example 114, (S)—N-[5-[2-cyano-5-[(3S)-1-(cyanomethyl)pyrrolidin-3-yl]oxy-4-pyridyl]pyrazolo[1,5-a]pyridin-2-yl]cyclopropanecarboxamide]	0.000337	6.58
Cc1cc(-c2ccn3nc(NC(=O)C4CC4)cc3c2)c(OC2CN(C)C2)cn1 [Example 115, N-(5-(2-methyl-5-((1-methylazetidin-3-yl)oxy)pyridin-4-yl)pyrazolo[1,5-a]pyridin-2-yl)cyclopropanecarboxamide]	0.0095	159
Cc1cc(-c2ccn3nc(Nc4ccn(C)n4)cc3c2)c(OC[C@@H]2CNCCO2)cn1 [Example 129, 5-[2-methyl-5-[[(2S)-morpholin-2-yl]methoxy]-4-pyridyl]-N-(1-methylpyrazol-3-yl)pyrazolo[1,5-a]pyridin-2-amine]	0.000657	8.28
Cc1cc(-c2ccn3nc(NC(=O)C4CC4)cc3c2)c(O[C@H]2C[C@H]3COC[C@@H](C2)N3)cn1 [Example 136, endo-N-(5-(5-(((1R,5S,7s)-3-oxa-9-azabicyclo[3.3.1]nonan-7-yl)oxy)-2-methylpyridin-4-yl)pyrazolo[1,5-a]pyridin-2-yl)cyclopropanecarboxamide]	0.000208	< 0.838
Cc1cc(-c2ccn3nc(NC(=O)C4CC4)cc3c2)c(O[C@@H]2CCN(C)C2)cn1 [Example 137, N-[5-[2-methyl-5-[(3R)-1-methylpyrrolidin-3-yl]oxy-4-pyridyl]pyrazolo[1,5-a]pyridin-2-yl]cyclopropanecarboxamide]	0.00334	70
Cc1cc(-c2ccn3nc(NC(=O)C4CC4)cc3c2)c(O[C@H]2C[C@H]3CC[C@@H](C2)N3C)cn1 [Example 138, N-(5-(2-methyl-5-(((1R,3r,5S)-8-methyl-8-azabicyclo[3.2.1]octan-3-yl)oxy)pyridin-4-yl)pyrazolo[1,5-a]pyridin-2-yl)cyclopropanecarboxamide]	0.000854	12.9
Cc1cc(-c2ccn3nc(NC(=O)C4CC4)cc3c2)c(O[C@H]2CCN(C)C2)cn1 [Example 139, N-[5-[2-methyl-5-[(3S)-1-methylpyrrolidin-3-yl]oxy-4-pyridyl]pyrazolo[1,5-a]pyridin-2-yl]cyclopropanecarboxamide]	0.0033	72.9
Cc1cc(-c2ccn3nc(NC(=O)C4CC4)cc3c2)c(OC[C@@H]2CNCCO2)cn1 [Example 143, N-[5-[2-methyl-5-[[(2S)-morpholin-2-yl]methoxy]-4-pyridyl]pyrazolo[1,5-a]pyridin-2-yl]cyclopropanecarboxamide]	0.000664	12.6
Cc1cc(-c2ccn3nc(NC(=O)C4CC4)cc3c2)c(OCC2(N)COC2)cn1 [Example 144, N-[5-[5-[(3-aminooxetan-3-yl)methoxy]-2-methyl-4-pyridyl]pyrazolo[1,5-a]pyridin-2-yl]cyclopropanecarboxamide]	0.00212	36.4
Cc1cc(-c2ccn3nc(NC(=O)C4CC4)cc3c2)c(OCC2(N)CC(F)(F)C2)cn1 [Example 145, N-[5-[5-[(1-amino-3,3-difluoro-cyclobutyl)methoxy]-2-methyl-4-pyridyl]pyrazolo[1,5-a]pyridin-2-yl]cyclopropanecarboxamide]	0.000642	16.4
Cc1cc(-c2ccn3nc(NC(=O)C4CC4)cc3c2)c(OC[C@H]2CC[C@@H](O)CC2)cn1 [Example 148, cis-N-[5-[5-[(4-hydroxycyclohexyl)methoxy]-2-methyl-4-pyridyl]pyrazolo[1,5-a]pyridin-2-yl]cyclopropanecarboxamide]	0.00436	58.3
Cc1cc(-c2ccn3nc(NC(=O)C4CC4)cc3c2)c(OC[C@H](N)C(C)(C)C)cn1 [Example 150, N-[5-[5-[(2R)-2-amino-3,3-dimethyl-butoxy]-2-methyl-4-pyridyl]pyrazolo[1,5-a]pyridin-2-yl]cyclopropanecarboxamide]	0.00644	322
Cc1cc(-c2ccn3nc(NC(=O)C4CC4)cc3c2)c(O[C@@H]2CC[C@H](N)C2)cn1 [Example 152, N-[5-[5-[(1R,3S)-3-aminocyclopentoxy]-2-methyl-4-pyridyl]pyrazolo[1,5-a]pyridin-2-yl]cyclopropanecarboxamide]	0.00378	70.1
